Experimental data taken from ChEMBL document CHEMBL1130436, “Synthesis and opioid activity of conformationally constrained dynorphin A analogues. 2. Conformational constraint in the "address" sequence” (J Med Chem, 1997).

Columns and labels:
Cavia porcellus = organism: Cavia porcellus; assay: Opioid activity in guinea pig ileum; assay type: functional
[1] = target: T1, Kappa-type opioid receptor (Cavia porcellus, UniProt P41144); assay: Binding affinity of compound was measured on Opioid receptor kappa 1 by competitive inhibition of radioligand [3H]diprenorphine using cloned receptors transiently expressed on COS-7 (monkey kidney) cells; assay type: cell-based
Mu-type opioid receptor [2] = target: T2, Mu-type opioid receptor (Cavia porcellus, UniProt P97266); assay: Binding affinity of compound was measured on Opioid receptor mu 1 by competitive inhibition of radioligand [3H]DAMGO using cloned receptors transiently expressed on COS-7 (monkey kidney) cells; assay type: cell-based
[3] = target: T3, Delta-type opioid receptor (Homo sapiens, UniProt P41143); assay: Binding affinity of compound was measured on Opioid receptor delta 1 by competitive inhibition of radioligand [3H]DPDPE using cloned receptors transiently expressed on COS-7 (monkey kidney) cells; assay type: cell-based
[4] = target: T1, Kappa-type opioid receptor; assay: Binding affinity to Opioid receptor kappa 1 by competitive inhibition of radioligand [3H]diprenorphine using cloned receptors transiently expressed on CHO cells; assay type: cell-based
Mu-type opioid receptor [5] = target: T2, Mu-type opioid receptor; assay: Binding affinity to Opioid receptor mu 1 by competitive inhibition of radioligand [3H]DAMGO using cloned receptors transiently expressed on CHO cells; assay type: cell-based
[6] = target: T3, Delta-type opioid receptor; assay: Binding affinity to Opioid receptor delta 1 by competitive inhibition of radioligand [3H]DPDPE using cloned receptors transiently expressed on CHO cells; assay type: cell-based, Cavia porcellus

Row | SMILES | IC50 (Cavia porcellus) | Ki [4] | Ki (Mu-type opioid receptor [5]) | Ki [6] | also measured
1 | CC[C@H](C)[C@H](NC(=O)[C@H](CCCNC(=N)N)NC(=O)[C@@H]1CCCNC(=O)C[C@@H](NC(=O)CNC(=O)[C@@H](N)Cc2ccc(O)cc2)C(=O)N[C@@H](Cc2ccccc2)C(=O)N[C@@H](CC(C)C)C(=O)N1)C(=O)N[C@@H](CCCNC(=N)N)C(=O)N1CCC[C@H]1C(=O)N[C@@H](CCCCN)C(=O)N[C@@H](CC(C)C)C(=O)N[C@@H](CCCCN)C(N)=O | 2700 nM |  |  |  | Ki [1]: 200 nM; Ki (Mu-type opioid receptor [2]): 320 nM; Ki [3]: 320 nM
2 | CC[C@H](C)[C@H](NC(=O)[C@H](CCCNC(=N)N)NC(=O)[C@H](CCCNC(=N)N)NC(=O)[C@H](CC(C)C)NC(=O)[C@H](Cc1ccccc1)NC(=O)[C@@H](CC(=O)O)NC(=O)CNC(=O)[C@@H](N)Cc1ccc(O)cc1)C(=O)N[C@@H](CCCNC(=N)N)C(=O)N1CCC[C@H]1C(=O)N[C@@H](CCCCN)C(=O)N[C@@H](CC(C)C)C(=O)N[C@@H](CCCCN)C(N)=O | 440 nM | 28 nM | 180 nM | 430 nM | 
3 | CC[C@H](C)[C@H](NC(=O)[C@H](CCCNC(=N)N)NC(=O)[C@H](CN)NC(=O)[C@H](CC(C)C)NC(=O)[C@H](Cc1ccccc1)NC(=O)[C@@H](CC(=O)O)NC(=O)CNC(=O)[C@@H](N)Cc1ccc(O)cc1)C(=O)N[C@@H](CCCNC(=N)N)C(=O)N1CCC[C@H]1C(=O)N[C@@H](CCCCN)C(=O)N[C@@H](CC(C)C)C(=O)N[C@@H](CCCCN)C(N)=O | 2800 nM |  |  |  | Ki ([1]; cos-7): 300 nM; Ki (Mu-type opioid receptor [2]; cos-7): 100 nM; Ki ([3]; cos-7): 1300 nM
4 | CC[C@H](C)[C@@H]1NC(=O)[C@H](CCCNC(=N)N)NC(=O)[C@H](NC(=O)[C@H](CC(C)C)NC(=O)[C@H](Cc2ccccc2)NC(=O)CNC(=O)CNC(=O)[C@@H](N)Cc2ccc(O)cc2)CC(=O)NCC[C@@H](C(=O)N2CCC[C@H]2C(=O)N[C@@H](CCCCN)C(=O)N[C@@H](CC(C)C)C(=O)N[C@@H](CCCCN)C(N)=O)NC1=O |  | 2.5 nM | 4.8 nM | 180 nM | 
5 | CC[C@H](C)[C@@H]1NC(=O)[C@H](CCCN=C(N)N)NC(=O)[C@H](NC(=O)[C@H](CC(C)C)NC(=O)[C@H](Cc2ccccc2)NC(=O)CNC(=O)CNC(=O)[C@@H](N)Cc2ccc(O)cc2)CC(=O)N[C@H](C(=O)N2CCC[C@H]2C(=O)N[C@@H](CCCCN)C(=O)N[C@@H](CC(C)C)C(=O)N[C@@H](CCCCN)C(=O)O)CCNC1=O | 22 nM |  |  |  | 
6 | CC[C@H](C)[C@@H]1NC(=O)[C@H](CCCN=C(N)N)NC(=O)[C@H](NC(=O)[C@H](CC(C)C)NC(=O)[C@H](Cc2ccccc2)NC(=O)CNC(=O)CNC(=O)[C@@H](N)Cc2ccc(O)cc2)CC(=O)N[C@H](C(=O)N2CCC[C@H]2C(=O)N[C@@H](CCCCN)C(=O)N[C@@H](CC(C)C)C(=O)N[C@@H](CCCCN)C(=O)O)CNC1=O | 46 nM |  |  |  | 
7 | CC[C@H](C)[C@@H]1NC(=O)[C@H](CCCNC(=N)N)NC(=O)[C@H](NC(=O)[C@H](CC(C)C)NC(=O)[C@H](Cc2ccccc2)NC(=O)CNC(=O)CNC(=O)[C@@H](N)Cc2ccc(O)cc2)CC(=O)NC[C@@H](C(=O)N2CCC[C@H]2C(=O)N[C@@H](CCCCN)C(=O)N[C@@H](CC(C)C)C(=O)N[C@@H](CCCCN)C(N)=O)NC1=O |  |  |  |  | Ki ([4]; cho): 2.6 nM; Ki (Mu-type opioid receptor [5]; cho): 4.4 nM; Ki ([6]; cho): 48 nM
8 | CC(C)C[C@H](NC(=O)[C@H](CCCCN)NC(=O)[C@@H]1CCCN1C(=O)[C@H](CCCNC(=N)N)NC(=O)[C@@H]1CCNC(=O)C[C@@H](NC(=O)[C@H](Cc2ccccc2)NC(=O)CNC(=O)CNC(=O)[C@@H](N)Cc2ccc(O)cc2)C(=O)N[C@@H](CCCNC(=N)N)C(=O)N[C@@H](CCCNC(=N)N)C(=O)N1)C(=O)N[C@@H](CCCCN)C(N)=O |  | 14 nM | 40 nM | 4100 nM | 
9 | CC(C)C[C@H](NC(=O)[C@H](CCCCN)NC(=O)[C@@H]1CCCN1C(=O)[C@H](CCCN=C(N)N)NC(=O)[C@@H]1CCNC(=O)[C@H](CCCN=C(N)N)NC(=O)[C@H](CCCN=C(N)N)NC(=O)[C@H](NC(=O)[C@H](Cc2ccccc2)NC(=O)CNC(=O)CNC(=O)[C@@H](N)Cc2ccc(O)cc2)CC(=O)N1)C(=O)N[C@@H](CCCCN)C(=O)O | 1300 nM |  |  |  | 
10 | CC[C@H](C)[C@H](NC(=O)[C@H](CCCNC(=N)N)NC(=O)[C@H](CCCNC(=N)N)NC(=O)[C@@H](CC(=O)O)NC(=O)[C@H](Cc1ccccc1)NC(=O)CNC(=O)CNC(=O)[C@@H](N)Cc1ccc(O)cc1)C(=O)N[C@@H](CCCNC(=N)N)C(=O)N1CCC[C@H]1C(=O)N[C@@H](CCCCN)C(=O)N[C@@H](CC(C)C)C(=O)N[C@@H](CCCCN)C(N)=O |  | 58 nM | 6.1 nM | 1300 nM | 
11 | CC[C@H](C)[C@H](NC(=O)[C@H](CCCNC(=N)N)NC(=O)[C@H](CCCNC(=N)N)NC(=O)[C@@H](CC(=O)O)NC(=O)[C@H](Cc1ccccc1)NC(=O)CNC(=O)CNC(=O)[C@@H](N)Cc1ccc(O)cc1)C(=O)N[C@@H](CCCNC(=N)N)C(=O)N1CCC[C@H]1C(=O)N[C@@H](CCCCN)C(=O)N[C@@H](CC(C)C)C(=O)N[C@@H](CCCCN)C(=O)O | 1400 nM |  |  |  | 
12 | CC(C)C[C@H](NC(=O)[C@H](CCCCN)NC(=O)[C@@H]1CCCN1C(=O)[C@H](CCCNC(=N)N)NC(=O)[C@H](CN)NC(=O)[C@H](CCCNC(=N)N)NC(=O)[C@H](CCCNC(=N)N)NC(=O)[C@@H](CC(=O)O)NC(=O)[C@H](Cc1ccccc1)NC(=O)CNC(=O)CNC(=O)[C@@H](N)Cc1ccc(O)cc1)C(=O)N[C@@H](CCCCN)C(N)=O |  | 20 nM | 8.3 nM | 1600 nM | 
13 | CC[C@H](C)[C@H](NC(=O)[C@H](CCCNC(=N)N)NC(=O)[C@@H](CC(=O)O)NC(=O)[C@H](CC(C)C)NC(=O)[C@H](Cc1ccccc1)NC(=O)CNC(=O)CNC(=O)[C@@H](N)Cc1ccc(O)cc1)C(=O)N[C@@H](CN)C(=O)N1CCC[C@H]1C(=O)N[C@@H](CCCCN)C(=O)N[C@@H](CC(C)C)C(=O)N[C@@H](CCCCN)C(N)=O | 74 nM |  |  |  | Ki ([4]; cho): 12 nM; Ki (Mu-type opioid receptor [5]; cho): 1.5 nM; Ki ([6]; cho): 8.2 nM
14 | CC[C@H](C)[C@H](NC(=O)[C@H](CCCNC(=N)N)NC(=O)[C@@H](CC(=O)O)NC(=O)[C@H](CC(C)C)NC(=O)[C@H](Cc1ccccc1)NC(=O)CNC(=O)CNC(=O)[C@@H](N)Cc1ccc(O)cc1)C(=O)N[C@@H](CCCNC(=N)N)C(=O)N1CCC[C@H]1C(=O)N[C@@H](CCCCN)C(=O)N[C@@H](CC(C)C)C(=O)N[C@@H](CCCCN)C(N)=O | 29 nM | 8 nM | 1.2 nM | 22 nM | 
15 | CC(C)C[C@H](NC(=O)[C@H](CCCCN)NC(=O)[C@@H]1CCCN1C(=O)[C@H](CCCNC(=N)N)NC(=O)[C@@H]1CNC(=O)C[C@@H](NC(=O)[C@H](Cc2ccccc2)NC(=O)CNC(=O)CNC(=O)[C@@H](N)Cc2ccc(O)cc2)C(=O)N[C@@H](CCCNC(=N)N)C(=O)N[C@@H](CCCNC(=N)N)C(=O)N1)C(=O)N[C@@H](CCCCN)C(N)=O |  | 8 nM | 75 nM | 3300 nM | 
16 | CC(C)C[C@H](NC(=O)[C@H](CCCCN)NC(=O)[C@@H]1CCCN1C(=O)[C@H](CCCN=C(N)N)NC(=O)[C@@H]1CNC(=O)[C@H](CCCN=C(N)N)NC(=O)[C@H](CCCN=C(N)N)NC(=O)[C@H](NC(=O)[C@H](Cc2ccccc2)NC(=O)CNC(=O)CNC(=O)[C@@H](N)Cc2ccc(O)cc2)CC(=O)N1)C(=O)N[C@@H](CCCCN)C(=O)O | > 5000 nM |  |  |  | 
17 | CC[C@H](C)[C@@H]1NC(=O)[C@H](CCCNC(=N)N)NC(=O)[C@H](NC(=O)[C@H](CC(C)C)NC(=O)[C@H](Cc2ccccc2)NC(=O)CNC(=O)CNC(=O)[C@@H](N)Cc2ccc(O)cc2)CC(=O)NCCC[C@@H](C(=O)N2CCC[C@H]2C(=O)N[C@@H](CCCCN)C(=O)N[C@@H](CC(C)C)C(=O)N[C@@H](CCCCN)C(N)=O)NC1=O | 6.8 nM | 1.5 nM | 3.2 nM | 28 nM | 
18 | CC(C)C[C@H](NC(=O)[C@H](CCCCN)NC(=O)[C@@H]1CCCN1C(=O)[C@H](CCCN=C(N)N)NC(=O)[C@@H]1CCCNC(=O)[C@H](CCCN=C(N)N)NC(=O)[C@H](CCCN=C(N)N)NC(=O)[C@H](NC(=O)[C@H](Cc2ccccc2)NC(=O)CNC(=O)CNC(=O)[C@@H](N)Cc2ccc(O)cc2)CC(=O)N1)C(=O)N[C@@H](CCCCN)C(=O)O | 530 nM |  |  |  | 
19 | CC(C)C[C@H](NC(=O)[C@H](CCCCN)NC(=O)[C@@H]1CCCN1C(=O)[C@H](CCCNC(=N)N)NC(=O)[C@@H]1CCCNC(=O)C[C@@H](NC(=O)[C@H](Cc2ccccc2)NC(=O)CNC(=O)CNC(=O)[C@@H](N)Cc2ccc(O)cc2)C(=O)N[C@@H](CCCNC(=N)N)C(=O)N[C@@H](CCCNC(=N)N)C(=O)N1)C(=O)N[C@@H](CCCCN)C(N)=O |  | 12 nM | 62 nM | 1900 nM | 
20 | CC[C@H](C)[C@H](NC(=O)[C@H](CCCNC(=N)N)NC(=O)[C@H](CCCNC(=N)N)NC(=O)[C@H](CC(C)C)NC(=O)[C@H](Cc1ccccc1)NC(=O)CNC(=O)CNC(=O)[C@@H](N)Cc1ccc(O)cc1)C(=O)N[C@@H](CCCNC(=N)N)C(=O)N1CCC[C@H]1C(=O)N[C@@H](CCCCN)C(=O)N[C@@H](CC(C)C)C(=O)N[C@@H](CCCCN)C(=O)O [ANALOG OF DYNORPHIN A] | 0.19 nM | 0.31 nM | 0.92 nM | 28.4 nM | 
